The text below walks through data of US20240002391A1, “4-ALKOXYPYRROLO[2,1-F][1,2,4]TRIAZINES AND PREPARATION AND USES THEREOF” (BioSplice Therapeutics, Inc., priority 2022, published 2024).

This experiment concerns the target recombinant DYRK1A kinase (Homo sapiens (Human), UniProt Q13627). Nature of the experiment: DYRK1A kinase assay (Ser/Thr 18 peptide Z-lyte FRET). It is filed as biochemical. The conditions noted are these: DYRK1A kinase activity, Z-lyte Ser/Thr 18 peptide, 15 μM ATP; method text calls the value IC50; read-out: EC50 (the source's name). The essentials:
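Compounds were tested as 11-point, threefold dilution series starting at 10 μM against recombinant enzyme in a 1 h room-temperature reaction with 15 μM ATP and 4 μM peptide substrate. Phosphorylation is read by protease-coupled FRET, and IC50 values come from curve fitting.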
With `COc1nc(N[C@H]2CC[C@@](C)(O)CC2)nn2ccc(-c3ccc4nnn(CC(F)(F)F)c4c3)c12` [Compound 910, (1s,4s)-4-((4-Methoxy-5-(1-(2,2,2-trifluoroethyl)-1H-benzo[d][1,2,3]triazol-6-yl)pyrrolo[2,1-f][1,2,4]triazin-2-yl)amino)-1-methylcyclohexan-1-ol], the IC50 worked out at 7.7 nM.

Consider `COc1nc(N[C@H]2CC[C@@H](OCCO)CC2)nn2ccc(-c3ccn4nccc4c3)c12` [Compound 13, 2-((cis-4-((4-Methoxy-5-(pyrazolo[1,5-a]pyridin-5-yl)pyrrolo[2,1-f][1,2,4]triazin-2-yl)amino)cyclohexyl)oxy)ethan-1-ol], for which the IC50 was found to be 5.5 nM.

Regarding `COCC(=O)N[C@]1(C)C[C@H](Nc2nc(OC)c3c(-c4ccc5nccnc5c4)ccn3n2)C1` [Compound 336, 2-Methoxy-N-(cis-3-((4-methoxy-5-(quinoxalin-6-yl)pyrrolo[2,1-f][1,2,4]triazin-2-yl)amino)-1-methylcyclobutyl)acetamide], the IC50 was determined as 1.3 nM.

Regarding `COc1nc(N[C@@H]2CN(C)C[C@@H]2F)nn2ccc(-c3ccc4nccnc4c3)c12` [Compound 350, N-((3R,4S)-4-Fluoro-1-methylpyrrolidin-3-yl)-4-methoxy-5-(quinoxalin-6-yl)pyrrolo[2,1-f][1,2,4]triazin-2-amine], the IC50 came to 1.4 nM.

For the molecule `COc1nc(N[C@H]2C[C@@](C)(NC(C)=O)C2)nn2ccc(-c3ccc4nnn(C)c4c3)c12` [Compound 205, N-(cis-3-((4-Methoxy-5-(1-methyl-1H-benzo[d][1,2,3]triazol-6-yl)pyrrolo[2,1-f][1,2,4]triazin-2-yl)amino)-1-methylcyclobutyl)acetamide], the IC50 is 4.3 nM.

Take `COc1nc(N[C@H]2C[C@@](C)(NC(=O)C3(C#N)CC3)C2)nn2ccc(-c3ccc4ncnn4c3)c12` [Compound 562, N-((1s,3s)-3-((5-([1,2,4]Triazolo[1,5-a]pyridin-6-yl)-4-methoxypyrrolo[2,1-f][1,2,4]triazin-2-yl)amino)-1-methylcyclobutyl)-1-cyanocyclopropane-1-carboxamide]: the IC50 was 1.1 nM.

With `COc1nc(N[C@@H]2CC[C@H]2OC)nn2ccc(-c3cnc4nccn4c3)c12` [Compound 930, 5-(Imidazo[1,2-a]pyrimidin-6-yl)-4-methoxy-N-((1R,2R)-2-methoxycyclobutyl)pyrrolo[2,1-f][1,2,4]triazin-2-amine], the IC50 was found to be 6.9 nM.

`COc1nc(N[C@H]2C[C@@](C)(N(C)C)C2)nn2ccc(-c3ccc4nnn(C)c4c3)c12` [Compound 204, cis-N^3-(4-methoxy-5-(1-methyl-1H-benzo[d][1,2,3]triazol-6-yl)pyrrolo[2,1-f][1,2,4]triazin-2-yl)-N^1,N^1,1-trimethylcyclobutane-1,3-diamine]: the IC50 was 3.5 nM.

`COc1nc(NC2CCOCC2)nn2ccc(-c3cnc4nccn4c3)c12` [Compound 271, 5-(Imidazo[1,2-a]pyrimidin-6-yl)-4-methoxy-N-(tetrahydro-2H-pyran-4-yl)pyrrolo[2,1-f][1,2,4]triazin-2-amine]: the IC50 came out at 3.8 nM.

Regarding `COc1nc(N[C@@H]2CN(C(C)=O)C[C@@H]2F)nn2ccc(-c3cc(F)c4nnn(CC(F)F)c4c3)c12` [Compound 812, 1-((3R,4S)-3-((5-(1-(2,2-Difluoroethyl)-4-fluoro-1H-benzo[d][1,2,3]triazol-6-yl)-4-methoxypyrrolo[2,1-f][1,2,4]triazin-2-yl)amino)-4-fluoropyrrolidin-1-yl)ethan-1-one], the IC50 worked out at 2.8 nM.

Regarding `COc1nc(N[C@H]2C[C@](C)(NC(C)=O)C2)nn2ccc(-c3cnc4nccn4c3)c12` [Compound 935, N-((1r,3r)-3-((5-(Imidazo[1,2-a]pyrimidin-6-yl)-4-methoxypyrrolo[2,1-f][1,2,4]triazin-2-yl)amino)-1-methylcyclobutyl)acetamide], the IC50 was 1.2 nM.

For the molecule `COc1nc(NC2CCN(C3COC3)CC2)nn2ccc(-c3ccc4nnn(CC(F)F)c4c3)c12` [Compound 750, 5-(1-(2,2-Difluoroethyl)-1H-benzo[d][1,2,3]triazol-6-yl)-4-methoxy-N-(1-(oxetan-3-yl)piperidin-4-yl)pyrrolo[2,1-f][1,2,4]triazin-2-amine], the IC50 was 0.3 nM.

For the molecule `COc1nc(N[C@H]2CCN(C3COC3)C[C@H]2F)nn2ccc(-c3ccc4nccnc4c3)c12` [Compound 374, N-((3R,4S)-3-Fluoro-1-(oxetan-3-yl)piperidin-4-yl)-4-methoxy-5-(quinoxalin-6-yl)pyrrolo[2,1-f][1,2,4]triazin-2-amine], the IC50 turned out to be 2.9 nM.

For the molecule `COc1nc(N[C@H]2CC[C@@](C)(O)CC2)nn2ccc(-c3ccc4nnn(C)c4c3)c12` [Compound 224, cis-4-((4-Methoxy-5-(1-methyl-1H-benzo[d][1,2,3]triazol-6-yl)pyrrolo[2,1-f][1,2,4]triazin-2-yl)amino)-1-methylcyclohexan-1-ol], the IC50 was found to be 11.3 nM.

As to `COc1nc(NC2CC3(C2)CN(C(=O)OC(C)(C)C)C3)nn2ccc(-c3ccn4nccc4c3)c12` [Compound 92, tert-Butyl 6-((4-methoxy-5-(pyrazolo[1,5-a]pyridin-5-yl)pyrrolo[2,1-f][1,2,4]triazin-2-yl)amino)-2-azaspiro[3.3]heptane-2-carboxylate], the IC50 worked out at 62.6 nM.

Turning to `COc1nc(N[C@@H]2CCN(C3COC3)CC2(F)F)nn2ccc(-c3ccc4ncccc4c3)c12` [Compound 321, (R)—N-(3,3-Difluoro-1-(oxetan-3-yl)piperidin-4-yl)-4-methoxy-5-(quinolin-6-yl)pyrrolo[2,1-f][1,2,4]triazin-2-amine], the IC50 is 2.1 nM.

For `COc1nc(NC2CCC(C)(C)CC2)nn2ccc(-c3cnc4nccn4c3)c12` [Compound 947, N-(4,4-Dimethylcyclohexyl)-5-(imidazo[1,2-a]pyrimidin-6-yl)-4-methoxypyrrolo[2,1-f][1,2,4]triazin-2-amine], the IC50 was 2.2 nM.

Take `COc1nc(N[C@H]2C[C@@H](OCCO)C2)nn2ccc(-c3ccn4nccc4c3)c12` [Compound 6, 2-(cis-3-((4-Methoxy-5-(pyrazolo[1,5-a]pyridin-5-yl)pyrrolo[2,1-f][1,2,4]triazin-2-yl)amino)cyclobutoxy)ethan-1-ol]: the IC50 is 1.1 nM.

As for `CNC(=O)[C@]1(C)C[C@@H](Nc2nc(OC)c3c(-c4ccc5nccnc5c4)ccn3n2)C1` [Compound 338, trans-3-((4-Methoxy-5-(quinoxalin-6-yl)pyrrolo[2,1-f][1,2,4]triazin-2-yl)amino)-N,1-dimethylcyclobutane-1-carboxamide], the IC50 was determined as 1.2 nM.

Turning to `COc1nc(N[C@H]2C[C@@](C)(O)C2)nn2ccc(-c3ccc4nnn(C)c4c3)c12` [Compound 199, cis-3-((4-Methoxy-5-(1-methyl-1H-benzo[d][1,2,3]triazol-6-yl)pyrrolo[2,1-f][1,2,4]triazin-2-yl)amino)-1-methylcyclobutan-1-ol], the IC50 is 5.7 nM.

On to `COc1nc(N[C@@H]2CCN(C3COC3)CC2(F)F)nn2ccc(-c3ccc4nnn(CCF)c4c3)c12` [Compound 670, (R)—N-(3,3-Difluoro-1-(oxetan-3-yl)piperidin-4-yl)-5-(1-(2-fluoroethyl)-1H-benzo[d][1,2,3]triazol-6-yl)-4-methoxypyrrolo[2,1-f][1,2,4]triazin-2-amine], for which the IC50 is 0.8 nM.
